# Patent publication US8076287B2, “Cyclic hexadepsipeptides, processes for their production and their use as pharmaceuticals” (priority 2006, dated 2011)
# Read-outs that look alike come from different tables or passages of the source.
# What was measured:
# [1] = system: PC-3 (prostate adenocarcinoma); experiment: In vitro cytotoxic activity (propidium iodide GI50); format: cell-based; details: 96 hrs
# SF-268 (CNS) = experiment: as above; format: cell-based; details: Homo sapiens, 96 hrs
# [2] = system: HT-29 (colorectal carcinoma); experiment: as above; format: cell-based; details: Homo sapiens, 96 hrs
# [3] = system: MDA-MB-231 (mammary gland adenocarcinoma); experiment: as above; format: cell-based; details: Homo sapiens, 96 hrs
# [4] = system: S. aureus ATCC ™ 6538P (MSSA); experiment: MIC broth dilution, antibacterial activity; format: cell-based; details: Staphylococcus aureus, MH medium, 35° C., 16 to 20 hours
# C. difficile ATCC ™ 9689 = experiment: microbe, parasite or virus in culture; format: cell-based, Clostridium difficile; details: Clostridioides difficile, ATCC9689
# [5] = In vivo acute toxicity (MTD); parameters: species or system CD-1 nu/nu mice; details: CD-1 nu/nu, mouse, saline with 10% EtOH and 7.5% polysorbate 80, read-out: maximum tolerated dose (MTD)
# Method: In vivo toxicity: The acute toxicity in CD-1 nu/nu mice of Compound 1 was determined in a saline solution comprising 10% EtOH and 7.5% polysorbate 80. When given i.p., the maximum tolerated dose (MTD) was ≧5 mg/kg. The MTD was 2.5 mg/kg when Compound 1 was administered i.v.
# [6] = system: Candida albicans ATCC™10231; experiment: Antifungal activity, NCCLS M27-A broth dilution; format: cell-based; details: ATCC10231, after 48 hours, RPMI 1640
# Method: Testing of antifungal activity was performed according to NCCLS method (NCCLS. Reference Method for Broth Dilution Antifungal Susceptibility Testing of Yeasts; Approved Standard. NCCLS document M27-A (ISBN 1-56238-328-0). NCCLS, 940 West Valley Road, Suite 1400, Wayne, Pa. 19087-1898 USA). Compound 1 was prepared as 100× stock solutions in DMSO, with concentrations ranging from 3.2 mg/mL to 0.003 mg/mL (a two-fold dilution series over 11 points). An aliquot of each 100× stock solution was diluted 50-fold in test medium described below to give a set of eleven (11) 2× solutions. 50 μL of each of the eleven 2× solutions was aliquoted into the corresponding well of a 12-well row, with the final well reserved for medium alone control. Inoculum density for the Candida albicans ATCC™10231 indicator strain was adjusted to OD600=0.1 in 5 mL 0.85% saline, then further diluted 1/1000 in RPMI 1640 medium. 50 μL of the final dilution (in test medium) of each indicator strain was added to each well of a 12-well row. This brings the final dilution of the test article or control compound in solution to 1×. The final inoculum was approximately 5×10^4 CFU/ml.
# B. subtilis ATCC ™ 23857 = experiment: MIC broth dilution, antibacterial activity; format: cell-based; details: Bacillus subtilis, ATCC23857, BHI+ medium
# [7] = system: S. epidermidis ATCC ™ 12228; experiment: MIC broth dilution, antibacterial activity; format: cell-based; details: Staphylococcus epidermidis, ATCC12228, MH medium, 35° C., 16 to 20 hours
# [8] = system: Enterococcus faecalis ATCC ™ 51299 (VRE); experiment: MIC broth dilution, antibacterial activity; format: cell-based; details: BHI+ medium
# [9] = system: S. pneumoniae LSPQ 3349 (Penicillin resistant); experiment: MIC broth dilution, antibacterial activity; format: cell-based; details: Streptococcus pneumoniae, MH + 2% lysed horse blood
# C. diphtheriae HER1356 = experiment: MIC broth dilution, antibacterial activity; format: cell-based; details: Corynebacterium diphtheriae; C. diphtheriae HER1356 (strain C7); MH medium
# [10] = system: Enterococcus faecalis ATCC ™ 29212 (VSE); experiment: MIC broth dilution, antibacterial activity; format: cell-based; details: ATCC29212, BHI+ medium
# M. Luteus ATCC ™ 9341 = experiment: MIC broth dilution, antibacterial activity; format: cell-based; details: Micrococcus luteus, ATCC9341, MH medium
# [11] = system: human MX-1 breast carcinoma xenograft; experiment: In vivo efficacy in human breast cancer xenograft model; parameters: species or system Harlan female athymic nude mice
# Method: The antitumor activity of Compound 1 was tested in vivo in a human MX-1 breast carcinoma model in mice, formulated in 10% ethanol, 7.5% ethanolic polysorbate 80 (1 g/mL in ethanol), and 82.5% saline. Harlan female athymic nude mice (12 weeks of age on Day 1 (D1)) were used for this study. Human MX-1 carcinoma was maintained in athymic nude mice by serial engraftment. A tumor fragment (1 mm^3) was implanted subcutaneously into the right flank of each test mouse. Tumors were monitored twice weekly and then daily as their mean volume approached 80-120 mm^3.
# On D1, animals were sorted into treatment groups 1 to 4 (groups 1 to 3: 9 mice; group 4:10 mice), with tumor sizes of 63-144 mm^3 and group mean tumor sizes of about 99 mm^3. Tumor volumes were calculated as (width^2×length) divided by 2. Tumor weight was estimated with the assumption that 1 mg is equivalent to 1 mm^3 of tumor volume.
# Starting on Day 1, each group was treated with dosing volumes of 0.2 mL/20-g mouse in Groups 1 and 2, and 0.1 mL/20-g mouse for Groups 3 and 4, scaled to the body weight of each animal, and according to the following protocol:
# Tumor measurements were taken twice weekly using calipers and were converted to tumor weight. Tumor weight was estimated with the assumption that 1 mg is equivalent to 1 mm^3 of tumor volume (tumor volume was determined as above). Body weights were also recorded daily for Day 1 to 5, and then twice weekly.
# Each animal was euthanized when its neoplasm reached the predetermined endpoint size (1,500 mm^3). The “time to endpoint” (TTE) for each mouse was calculated by the following equation:
# [formula] where “TTE” is expressed in days, “endpoint volume” is in mm^3, “b” is the intercept, and “m” is the slope of the line obtained by linear regression of a log-transformed tumor growth data set. The data set comprised the first observation that exceeded the study endpoint volume and the three consecutive observations that immediately preceded the attainment of the endpoint volume.
# Treatment efficacy was determined from “tumor growth delay” (TGD), which is defined as the increase in “T” the median TTE for a treatment group compared to “C” the median for control group 1: TGD=T−C, expressed in days, or as a percentage of the median TTE of the control group (% TGD=(TGD/C)×100).
# The “percentage of tumor growth inhibition” (TGI) is calculated as:
# [formula] wherein MTVtreated and MTVvehicle are respectively the “median tumor volume” for the animals treated with Compound 1 and animals receiving the vehicle, on day 18 and day 0. Two-tailed statistical analyses were done using GraphPad Prism™ software.
# The “MTV(n)” is defined as the median tumor volume on Day 53 in the number of animals remaining, n, whose tumors have not attained endpoint volume.
# Sheep red blood cells = experiment: In vitro toxicity: hemolytic activity; format: cell-based; details: 2 hrs at 37° C., prepared in DMSO
# Method: In vitro toxicity: Sheep red blood cells were exposed to Compound 1 for 2 hrs at 37° C. at concentrations ranging from 2 to 64 μg/mL. Hemolytic activity was determined by monitoring the amount of hemoglobin released spectrophotometrically.
# [12] = system: HUVEC (human umbilical vein endothelial cells); experiment: In vitro cytotoxic activity (propidium iodide GI50); format: cell-based; details: 72 hours
# [13] = system: S. pneumoniae LSPQ 3412 (Penicillin sensitive); experiment: MIC broth dilution, antibacterial activity; format: cell-based; details: Streptococcus pneumoniae, MH + 2% lysed horse blood
# [14] = system: S. aureus MRS3 ATCC ™ 700699 (MRSA-hVISA); experiment: MIC broth dilution, antibacterial activity; format: cell-based; details: Staphylococcus aureus, MH medium, 35° C., 16 to 20 hours
# C. perfringens HER1390 = experiment: microbe, parasite or virus in culture; format: cell-based; details: Clostridium perfringens
SMILES,GI50 [1] [nM],GI50 (SF-268 (CNS)) [nM],GI50 [2] [nM],GI50 [3] [nM],MIC (C. difficile ATCC ™ 9689) [µg/mL],MIC (B. subtilis ATCC ™ 23857) [µg/mL],MIC [9] [µg/mL],MIC (C. diphtheriae HER1356) [µg/mL],MIC (M. Luteus ATCC ™ 9341) [µg/mL],MIC [13] [µg/mL],MIC (C. perfringens HER1390) [µg/mL],also measured
"COc1cccc2c1C(=O)c1c(O)c3c(c(O)c1C2=O)C[C@@](O)(C(C)=O)C[C@@H]3O[C@H]1C[C@H](N)[C@H](O)[C@H](C)O1 [Daunorubicin, reference compound]",11,19,20,9,–,–,–,–,–,–,–,–
CCC1OC(O)(C(C)(O)C(=O)NC2C(=O)N3NCCCC3C(=O)N(O)CC(=O)N3NCCCC3C(=O)N3CCC(C)(O)C3C(=O)N(O)C(C(C)C)C(=O)OC2C(C)C)CCC1CC(C)C (centres unmarked) [Compound 1],66,25,37,28,< 0.008,0.004,0.031,< 0.008,0.063,0.156,< 0.008,"MIC [4]: 0.031 µg/mL; MTD ([5]; ip): ≥ 5 mg/kg; MTD ([5]; iv): 2.5 mg/kg; MIC [6]: 8 µg/mL; MIC [7]: 0.094 µg/mL; MIC [8]: 1 µg/mL; MIC [10]: 0.5 µg/mL; percentage of tumor growth inhibition (TGI) ([11]; 1 mg/kg i.p., median tumor volume vs vehicle, day 18): 51.6%; MTV(3), median tumor volume on Day 53 in animals remaining ([11]; 1 mg/kg i.p., n=3 animals not at endpoint volume): 6 mm^3; body weight loss ([11]; 1 mg/kg i.p., on Day 8, mean body weight): 13%; tumor growth delay (TGD) ([11]; 1 mg/kg i.p., when compared with vehicle): 82%; body weight loss during q4d dosing ([11]; period Compound 1 was given once every four days): no severe body weight loss; hemolytic activity (concentration) (Sheep red blood cells): 12.8 µM; hemolytic activity (concentration) (Sheep red blood cells; 2 to 64 μg/mL tested): 11.8 µg/mL; GI50 [12]: 19 nM; MIC [14]: 0.5 µg/mL"
"CN[C@H](CC(C)C)C(=O)N[C@H]1C(=O)N[C@@H](CC(N)=O)C(=O)N[C@H]2C(=O)N[C@H]3C(=O)N[C@H](C(=O)N[C@H](C(=O)O)c4cc(O)cc(O)c4-c4cc3ccc4O)[C@H](O)c3ccc(c(Cl)c3)Oc3cc2cc(c3O[C@@H]2O[C@H](CO)[C@@H](O)[C@H](O)[C@H]2O[C@H]2C[C@](C)(N)[C@H](O)[C@H](C)O2)Oc2ccc(cc2Cl)[C@H]1O [Vancomycin, reference compound]",–,–,–,–,0.25,0.25,0.5,0.5,2,0.25,0.5,–
